Measured values reported in US10913727B2, “Modulators of the integrated stress pathway” (Calico Life Sciences LLC, priority 2016, dated 2021).

Each compound was assayed on HEK293T cells carrying the ATF4 luciferase reporter (assay: ATF4-Luc assay, in vitro model of Vanishing Cell White Matter Disease (VWMD)). Conditions: Homo sapiens, HEK-293T, 1 μg/mL tunicamycin, 7 hours, One Glo luminescence.
Format: cell-based
Method in brief: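 Compound at 200 nM and tunicamycin at 1 μg/mL were given together for 7 h to HEK293T cells stably transduced with an ATF4 5′-UTR-driven firefly luciferase reporter. Read-out by luminescence, reported as EC50.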
For COc1ncc(F)cc1C(=O)NC12CC(NC(=O)COc3ccc(Cl)c(F)c3)(C1)C2 [Compound 863, N-{3-[2-(4-chloro-3-fluorophenoxy)acetamido]bicyclo[1.1.1]pentan-1-yl}-5-fluoro-2-methoxypyridine-3-carboxamide], the EC50 was > 2000 nM.
With Cc1ccc(C(=O)NC23CCC(NC(=O)COc4ccc(Cl)c(F)c4)(CC2)C[C@@H]3O)nc1 [Compound 589, N-{(2S)-4-[2-(4-chloro-3-fluorophenoxy)acetamido]-2-hydroxybicyclo[2.2.2]octan-1-yl}-5-methylpyridine-2-carboxamide] the EC50 was 50 to 250 nM.
O=C(COc1ccc(Cl)c(Cl)c1)NC12CC(NC(=O)c3cnccn3)(C1)C2 [Compound 164, N-{3-[2-(3,4-dichlorophenoxy)acetamido]bicyclo[1.1.1]pentan-1-yl}pyrazine-2-carboxamide] showed an EC50 of 50 to 250 nM.
In the case of COc1ccnc(C(=O)NC23CC(NC(=O)COc4ccc(Cl)c(F)c4)(C2)C3)c1 [Compound 177, N-{3-[2-(4-chloro-3-fluorophenoxy)acetamido]bicyclo[1.1.1]pentan-1-yl}-4-methoxypyridine-2-carboxamide], the EC50 is reported as 250 to 1000 nM.
O=C(COc1ccc(Cl)c(F)c1)NC12CC(NC(=O)c3cnn(-c4ccccn4)c3)(C1)C2 [Compound 802, N-{3-[2-(4-chloro-3-fluorophenoxy)acetamido]bicyclo[1.1.1]pentan-1-yl}-1-(pyridin-2-yl)-1H-pyrazole-4-carboxamide] was tested, and the EC50 was > 2000 nM.
Compound Cc1ccn2cc(C(=O)NC34CCC(NC(=O)COc5ccc(Cl)c(F)c5)(CC3)C(O)C4)nc2c1 (stereo not shown) [Compound 598, N-{4-[2-(4-chloro-3-fluorophenoxy)acetamido]-3-hydroxybicyclo[2.2.2]octan-1-yl}-7-methylimidazo[1,2-a]pyridine-2-carboxamide] has an EC50 of 50 to 250 nM.
In the case of O=C(COc1ccc(Cl)c(F)c1)NC12CC(NC(=O)c3cnc4ncccc4n3)(C1)C2 [Compound 864, N-{3-[2-(4-chloro-3-fluorophenoxy)acetamido]bicyclo[1.1.1]pentan-1-yl}pyrido[2,3-b]pyrazine-2-carboxamide], the EC50 is reported as > 2000 nM.
Work on Cc1cc(C(=O)NC23CC(NC(=O)COc4ccc5c(c4)OC(F)(F)O5)(C2)C3)n(C)n1 [Compound 442, N-(3-{2-[(2,2-difluoro-2H-1,3-benzodioxol-5-yl)oxy]acetamido}bicyclo[1.1.1]pentan-1-yl)-1,3-dimethyl-1H-pyrazole-5-carboxamide] yielded an EC50 of 250 to 1000 nM.
Work on COc1cc(C(=O)NC23CCC(NC(=O)COc4ccc(Cl)c(F)c4)(CC2)C(O)C3)on1 (stereo not shown) [Compound 576, N-{4-[2-(4-chloro-3-fluorophenoxy)acetamido]-3-hydroxybicyclo[2.2.2]octan-1-yl}-3-methoxy-1,2-oxazole-5-carboxamide] yielded an EC50 of 50 to 250 nM.
CCc1ccc(C(=O)NC23CC(NC(=O)COc4ccc(Cl)c(F)c4)(C2)C3)o1 [Compound 250, N-{3-[2-(4-chloro-3-fluorophenoxy)acetamido]bicyclo[1.1.1]pentan-1-yl}-5-ethylfuran-2-carboxamide] was tested, and the EC50 was < 50 nM.
In the case of O=C(COc1ccc(Cl)c(F)c1)NC12CC(NC(=O)c3ccc(-c4ccco4)cn3)(C1)C2 [Compound 267, N-{3-[2-(4-chloro-3-fluorophenoxy)acetamido]bicyclo[1.1.1]pentan-1-yl}-5-(furan-2-yl)pyridine-2-carboxamide], the EC50 is reported as < 50 nM.
O=C(COc1ccc(Cl)c(F)c1)NC12CC(NC(=O)c3ccccc3F)(C1)C2 [Compound 507, N-{3-[2-(4-chloro-3-fluorophenoxy)acetamido]bicyclo[1.1.1]pentan-1-yl}-2-fluorobenzamide] was tested, and the EC50 was 250 to 1000 nM.
In the case of O=C(COc1ccc(Cl)c(F)c1)NC12CCC(NC(=O)c3cnccn3)(CC1)C(O)C2 (stereo not shown) [Compound 219, N-{4-[2-(4-chloro-3-fluorophenoxy)acetamido]-2-hydroxybicyclo[2.2.2]octan-1-yl}pyrazine-2-carboxamide], the EC50 is reported as 50 to 250 nM.
